# Data published in paper PMC6344423, “Opposing Actions of Adrenocorticotropic Hormone and Glucocorticoids on UCP1-Mediated Respiration in Brown Adipocytes” (Frontiers in Physiology, 2019).
# How the values were obtained:
# [1] = test system: primary brown adipocytes; assay: Microplate-based respirometry (XF96), UCP1-mediated uncoupled respiration; format: cell-based, mouse
# Procedure: (§1) Oxygen consumption of primary brown adipocytes was measured at 37°C using microplate-based respirometry (XF96 extracellular flux analyzer, Seahorse Bioscience) as described previously ([Li et al., 2014b]) following the subsequent protocol at day 7 of differentiation. Prior to the respiration measurement, primary cells were washed with warmed, unbuffered assay medium (DMEM basal medium supplemented with 25 mM glucose, 31 mM NaCl, 2 mM GlutaMax and 15 mg/l phenol red, pH 7.4) (basal assay medium). Subsequent to the medium replacement with basal assay medium containing 1–2% essentially fatty acid free bovine serum albumin (BSA), cells were incubated at 37°C in a CO2-free incubator for 1 h. Assay reagents were loaded into the drug injections ports of the sensor cartridges at 10X in basal assay medium (no BSA). After assessment of basal oxygen consumption in untreated cells oligomycin (5 μM) was injected to inhibit coupled respiration and to determine basal leak respiration. Next, effector was added to investigate UCP1-dependant uncoupled respiration. By the addition of FCCP (1 μM) maximal respiratory capacity was determined. Lastly, non-mitochondrial oxygen consumption was assessed by blocking mitochondrial respiration with antimycin A (5 μM). For some experiments, cells were pretreated for 1 h with 50 μM H89 (PKA inhibitor), 1–100 μM propranolol (β-adrenergic receptor antagonist), 40 μM Atglistatin (ATGL inhibitor) and 40 μM Hi76-0079 (HSL inhibitor) 1 h prior to the measurement. Oxygen consumption rates were automatically calculated by the Seahorse XF-96 software. Each experiment was repeated at least three times with similar results and five to eight replicate wells for every condition in each independent experiment. Results are predominately expressed as stimulated respiration which is calculated as fold increase of basal leak.
# In our first screen, we tested whether these GsPCR ligands can activate oxygen consumption acutely in brown adipocytes. UCP1-mediated uncoupled respiration was quantified in cultured adherent intact primary brown adipocytes, according to a protocol established in our lab ([Li et al., 2014b]). After recording basal respiration and the fraction of coupled and uncoupled respiration, UCP1-dependent respiration was measured. Finally, maximal respiratory capacity and non-mitochondrial oxygen consumption were assessed by adding the uncoupling agent carbonyl cyanide 4-(trifluoromethoxy) phenylhydrazone (FCCP) and antimycin A was added to block the electron transport chain, respectively. All respiration assays were performed in the presence of BSA to buffer free fatty acid (FFA) levels in the respiration medium.
# [2] = test system: T37i cells; conditions: ref Iwen et al., 2008, van den Beukel et al., 2014; cited from earlier work
# Description: (§2) The melanocortins ACTH and α-MSH are known for their lipolytic action in rodent adipocytes, as first reported in 1958 ([Lafontan, 2012]; [Braun et al., 2018]). […] ACTH enhanced BAT function in obese rats ([York and Al-Baker, 1984]), and increased glucose transport and respiration in isolated brown adipocytes ([Marette and Bukowiecki, 1990]) via fatty acid activation of mitochondrial uncoupled respirati ...
# [3] = test system: immortalized murine adipocytes; conditions: ref Iwen et al., 2008, van den Beukel et al., 2014; cited from earlier work
# Description: as §2
# [4] = test system: BAT; conditions: supraphysiological dose, 15 μM ACTH; ref van den Beukel et al., 2014; cited from earlier work
# Description: as §2
# [5] = test system: Ucp1 mRNA in primary white adipocytes; assay: Ucp1 gene expression analysis (qRT-PCR), white adipocytes; format: cell-based, mouse; conditions: two different doses of ACTH, iWAT adipocytes, normalized to Gtf2b, n = 4, Figure 3B
# Procedure: (§3) Total RNA was isolated using Trisure (Bioline) and purified with SV total RNA Isolation System (Promega). Reverse transcriptase reactions were performed using SensiFAST cDNA Synthesis Kit (Bioline). Quantitative real-time PCR (qRT-PCR) was performed with SYBR green fluorescent dye in 384-well format using LightCycler 480 (Roche). General Transcription Factor IIB (Gtf2b) served as an internal control. To be able to calculate relative gene expression levels of samples, standard reactions containing serial diluted pooled cDNA of all samples (Pure, 1:2, 1:4, 1:8, 1:16, 1:32 and 1:64) as a template were used to establish a standard curve. The RNA abundance of Ucp1 gene was normalized to the housekeeping gene Gtf2b. The following primers were used: […]
# [6] = test system: Ucp1 mRNA in primary brown adipocytes; assay: Ucp1 gene expression analysis (qRT-PCR), brown adipocytes; format: cell-based, mouse
# Procedure: as §3
# [7] = test system: primary brown adipocytes of UCP1^-/-; assay: Respirometry in primary brown adipocytes of UCP1^-/- mice; format: cell-based, mouse; conditions: ACTH 1 μM, n = 3, Figure 2G
# Procedure: as §1, with “Next, effector was added to investigate UCP1-dependant uncoupled respiration.” left out, “For some experiments, cells were pretreated for 1 h with 50 μM H89 (PKA inhibitor), 1–100 μM propranolol (β-adrenergic receptor antagonist), 40 μM Atglistatin (ATGL inhibitor) and 40 μM Hi76-0079 (HSL inhibitor) 1 h prior to the measurement.” left out, “Each experiment was repeated at least three times with similar results and five to eight replicate wells for every condition in each independent experiment.” left out
# [8] = test system: cytosolic cAMP in primary brown adipocytes; assay: Quantification of cellular cAMP (cAMP-Glo Assay); format: cell-based, mouse
# Procedure: Changes in cytosolic cAMP concentrations were determined in primary brown adipocytes in response to ACTH- or isoproterenol stimulation using cAMP-Glo Assay (Promega) following the manufacturer’s instructions.
# [9] = test system: Ucp1 gene expression in primary brown adipocytes of Ucp1^ki/ki mice; assay: Luciferase assay, FLUC activity as surrogate for Ucp1 expression; format: cell-based, mouse; conditions: overnight stimulation, normalized to total protein content, n = 3, Figure 1D
# Procedure: After overnight stimulation of primary brown adipocytes of Ucp1^ki/ki mice luciferase activity was assayed using a commercial kit system (Luciferase Assay System Freezer Pack E4030, Promega GmbH). Primary cells were lysed in 1x reporter lysis buffer by shaking for 20 min at room temperature. 10 μl lysate was mixed with 50 μl luciferase assay substrate solution, and the mixture was measured by FB12 in a luminometer (Single Tube Luminometer, Titertek-Berthold GmbH). Bioluminescence readouts were normalized to total protein content.
# We then measured FLUC activity in primary brown adipocytes from Ucp1^ki/ki reporter gene mice to determine the effect of the GsPCR ligands on Ucp1 gene expression in response to overnight stimulation. As the expression of Fluc in these cells is driven by Ucp1promoter, FLUC activity served as a surrogate for Ucp1 expression.
# [10] = dose–response experiment, Figure 2A
substance,measurement,setting,value
"ACTH: Murine ACTH(1-39), 39 amino acid peptide hormone, ligand for the melanocortin 2 receptor (MC2R) (SYSMEHFRWGKPVGKKRRPVKVYPNVAENESAEAFPLEF; Corticotropin; UniProt P01193 124-162, looked up)",ACTH concentration that stimulated respiration (fold increase over basal leak respiration),[1]; [10],200 nM
same,ACTH concentration with the most robust effect on stimulated respiration,[1]; [10],1 µM
same,"Stimulated respiration (UCP1-dependent uncoupled respiration) as fold increase of basal leak respiration, GsPCR ligand screen","[1]; primary brown adipocytes (129S6 mice), acute addition after oligomycin 5 μM, medium with 1–2% fatty acid free BSA, 37°C, n = 5, Figures 1B,C",most prominent induction of UCP1-dependant uncoupled respiration
same,ACTH concentration at which adipocytes respond in cell culture,[2],50 nM
same,ACTH concentration at which adipocytes respond in cell culture,[3],100 nM
same,Glucose uptake into BAT,[4],increased glucose uptake into BAT
same,"Ucp1 mRNA levels, differentiated white adipocytes",[5],dose-dependent increase in Ucp1 mRNA levels
same,Maximal induction of Ucp1 mRNA relative to ISO,"[6]; 1 μM ACTH vs ISO 500 nM, Figures 3A,B",comparable to the effect of ISO treatment
same,"Ucp1 mRNA levels, differentiated brown adipocytes","[6]; two different doses of ACTH, normalized to Gtf2b, n = 4, Figure 3A",dose-dependent increase in Ucp1 mRNA levels
same,ACTH-stimulated respiration in UCP1^-/- compared to UCP1^+/+ cells,[7],attenuated in primary brown adipocytes of UCP1^-/-
same,Cytosolic cAMP levels after ACTH stimulation,"[8]; increasing concentrations, 30 min, n = 3, Figure 2D",dose-dependent increase of cytosolic cAMP levels
same,EC50,"[8]; stimulation for 30 min, n = 3, non-linear regression, Figure 2D",1.49 µM
same,FLUC (luciferase) activity as surrogate for Ucp1 expression,[9],moderate rise in FLUC activity
